Read-outs that look alike come from different tables or passages of the source.
How the values were obtained:
[1] = tested on: MCR-1 positive Escherichia coli (E. coli DZ2-12R); assay: Chessboard MIC test, MCR-1 positive E. coli; format: cell-based; conditions: for MIC: Escherichia coli; for antibacterial effect alone: summary for the strains of Tables 1 and 2; for reduction of the MIC value of polymyxin: combination with polymyxin, MCR-1 positive Escherichia coli
Protocol: (§1) The antibacterial activities of honokiol, magnolol, polymyxin and their combination against MCR-1 producing Escherichia coli (also referred to as MCR-1 positive Escherichia coli) and Klebsiella pneumoniae are tested by chessboard method in 96-well sterile microplates, the MIC values are determined, and the fractional inhibitory concentration (FIC) indexes are calculated. Specifically, FIC=MIC (polymyxin combined)/MIC (polymyxin alone)+MIC (honokiol/magnolol combined)/MIC (honokiol/magnolol alone).

[2] = tested on: MCR-1 positive Klebsiella pneumoniae (K. pneumoniae ZJ02); assay: Chessboard MIC test, MCR-1 positive K. pneumoniae; format: cell-based; conditions: for MIC: Klebsiella pneumoniae; for reduction of the MIC value of polymyxin: combination with polymyxin, MCR-1 positive Klebsiella pneumoniae
Protocol: as §1

[3] = tested on: MCR-1 engineering bacteria E. coli BL21(DE3) (pET28a-mcr-1); assay: Chessboard MIC test, MCR-1 engineering bacteria; format: cell-based, Escherichia coli; conditions: for MIC: Escherichia coli, read-out: MIC alone; for synergistic effect with polymyxin: combination with polymyxin, strain expressing MCR-1; for FIC: combined with polymyxin B
Protocol: as §1

[4] = tested on: E. coli BL21(DE3) (pET28a); assay: Chessboard MIC test, engineering strain not expressing MCR-1; format: cell-based, Escherichia coli; conditions: for MIC: Escherichia coli, read-out: MIC alone; for synergistic effect with polymyxin: combination with polymyxin, strain that does not express MCR-1; for FIC: combined with polymyxin B
[5] = tested on: MCR-1 positive Escherichia coli isolate; assay: Time-kill curve test; format: cell-based; conditions: 1×10^5 CFUs/mL
Protocol: An overnight culture of MCR-1 positive Escherichia coli isolate is taken and adjusted to 1×10^7 colony forming units per milliliter (CFUs/mL) for use. Sterile test tubes are taken and divided into 4 groups (including blank control group, 2 μg/mL polymyxin group B group, 16 μg/mL honokiol or 32 μg/mL magnolol group, and 16 μg/mL honokiol or 32 μg/mL magnolol combined with 2 μg/mL polymyxin B group), each group is marked for 1, 3, 5 and 7 hours. 1 mL of autoclaved Lysogeny broth (LB) medium is added into each of the test tubes, and then 10 microliters (μL) of adjusted bacterial solution are added into each of the test tubes so that the concentration of bacterial solution in each of the test tubes is 1×10^5 CFUs/mL. Among them, 2 μg/mL polymyxin group B group, 16 μg/mL honokiol or 32 μg/mL magnolol group, and 16 μg/mL honokiol or 32 μg/mL magnolol combined with 2 μg/mL polymyxin B group are added with the corresponding amount of antibiotics and inhibitors respectively. Immediately after mixing, the bacterial solution of the antibiotic-free control group is coated and counted as the CFU at 0 H. After that, the bacterial solution in the corresponding test tube is taken every 1, 3, 5 and 7 hours, and the plate is coated for counting, and the time-kill curves are drawn, as shown in FIG. 1 and FIG. 2.

[6] = tested on: MCR-1 positive Klebsiella pneumoniae; assay: Colony colonization experiment of mouse thigh muscle infection; format: in vivo; conditions: BALB/C mice, subcutaneous, every 8 hours for three times, 36 hours
Protocol: After BALB/C mice (female, about 20 […] (g)) are restrained, MCR-1 positive Klebsiella pneumoniae suspension (2×10^7 CFUs) is injected through the inner thigh to establish a mouse thigh muscle infection model.
After intramuscular injection of MCR-1 positive Klebsiella pneumoniae into the inner thigh of mice, 5 […] (mg/kg) (50 μL) of polymyxin B dissolved in sterile ultra-pure water (dd H2O), 50 mg/kg (50 μL) honokiol or magnolol dissolved in dimethyl sulfoxide (DMSO) solution, and 50 mg/kg of honokiol or magnolol combined with polymyxin B (5 mg/kg) are injected subcutaneously, while the positive control group is subcutaneously injected with 50 μL DMSO blank solvent. All groups of mice are administered subcutaneously every 8 hours for three times. After 36 hours of administration, the mice are sacrificed, and the thigh muscles are weighed, homogenized, diluted and counted.

[7] = combined with polymyxin B, E. coli DZ2-12R
[8] = combined with polymyxin B, K. pneumoniae ZJ02
[9] = E. coli BL21(DE3) (pET28a-mcr-1)
[10] = 50 mg/kg combined with polymyxin B (5 mg/kg)
[11] = alone (honokiol or magnolol 50 mg/kg, polymyxin B 5 mg/kg)

Molecule	MIC ([1]; read-out: MIC alone)	antibacterial effect alone ([1]; alone)	reduction of the MIC value of polymyxin [1]	FIC [1, 7]	MIC ([2]; read-out: MIC alone)	reduction of the MIC value of polymyxin [2]	FIC [2, 8]	MIC [3]	synergistic effect with polymyxin [3]	FIC [3, 9]	MIC [4]	synergistic effect with polymyxin [4]	FIC ([4]; E. coli BL21(DE3) (pET28a))	number of bacterial colonization in mouse thigh muscle [6, 10]	number of bacterial colonization in mouse thigh muscle [6, 11]	further results
C=CCc1ccc(O)c(-c2ccc(O)c(CC=C)c2)c1 [Honokiol, honokiol]	> 512 µg/mL	no antibacterial effect	8 fold	0.1875	> 512 µg/mL	16 fold	0.125	> 512 µg/mL	obvious synergistic effect	0.125	> 512 µg/mL	does not have any synergistic effect	0.5625	significantly reduced	no significant effect	MIC ([1]; combined with polymyxin B, E. coli DZ2-12R, read-out: MIC co-application (honokiol/magnolol)): 32 µg/mL; MIC ([2]; combined with polymyxin B, K. pneumoniae ZJ02, read-out: MIC co-application (honokiol/magnolol)): 32 µg/mL; time to completely kill MCR-1 positive Escherichia coli ([5]; 16 μg/mL honokiol combined with 2 μg/mL polymyxin B): ≤ 1 h
C=CCc1ccc(O)c(-c2cc(CC=C)ccc2O)c1 [Magnolol, magnolol]	> 512 µg/mL	no antibacterial effect	4 fold	0.3125	> 512 µg/mL	4 fold	0.3125	> 512 µg/mL	obvious synergistic effect	0.1875	> 512 µg/mL	does not have any synergistic effect	1.0625	significantly reduced	no significant effect	time to completely kill MCR-1 positive Escherichia coli ([5]; 32 μg/mL magnolol combined with 2 μg/mL polymyxin B): ≤ 3 h
Polymyxin B [reference compound]	–	–	–	–	–	–	–	–	–	–	–	–	–	–	no significant effect	MIC alone ([1]; alone, E. coli DZ2-12R): 8 µg/mL; MIC Polymyxin B co-application ([1]; polymyxin B combined with honokiol, E. coli DZ2-12R): 1 µg/mL; MIC Polymyxin B co-application ([1]; polymyxin B combined with magnolol, E. coli DZ2-12R): 2 µg/mL; MIC alone ([2]; alone, K. pneumoniae ZJ02): 32 µg/mL; MIC Polymyxin B co-application ([2]; polymyxin B combined with honokiol, K. pneumoniae ZJ02): 2 µg/mL; MIC Polymyxin B co-application ([2]; polymyxin B combined with magnolol, K. pneumoniae ZJ02): 8 µg/mL; MIC alone ([3]; alone, E. coli BL21(DE3) (pET28a-mcr-1)): 8 µg/mL; MIC Polymyxin B co-application ([3]; polymyxin B combined with honokiol, E. coli BL21(DE3) (pET28a-mcr-1)): 0.5 µg/mL; MIC Polymyxin B co-application ([3]; polymyxin B combined with magnolol, E. coli BL21(DE3) (pET28a-mcr-1)): 1 µg/mL; MIC alone ([4]; alone, E. coli BL21(DE3) (pET28a)): 1 µg/mL; MIC Polymyxin B co-application ([4]; polymyxin B combined with honokiol, E. coli BL21(DE3) (pET28a)): 0.5 µg/mL; MIC Polymyxin B co-application ([4]; polymyxin B combined with magnolol, E. coli BL21(DE3) (pET28a)): 1 µg/mL
